Patent US20200371122A1, “BIOMARKER FOR SENESCENT CELLS” (Buck Institute for Research on Aging, priority 2017, published 2020)

What was measured:
[1] = tested on: IL-6 secretion in senescent cells; experiment: IL-6 ELISA on conditioned media of IR-induced senescent cells treated with COX-2/ALOX5 inhibitors; format: cell-based, human; details: SEN(IR) IMR-90, inhibitor for 10 days
Description: (§1) Human fetal lung fibroblasts (IMR-90) were cultured in Dulbecco's modified eagle medium (DMEM) supplemented with 10% FBS and penicillin/streptomycin. LL 29 (AnHa) cells were obtained from the ATCC and growth to confluence using the ATCC protocol, but were subcultured as described for IMR-90 before initiation of all experiments. Quiescence was induced by replacing culture media with media containing 0.2% FBS. MCF-7 and MDA-MB-231 breast cancer cells were cultured in RPMI supplemented with 10% FBS and penicillin/streptomycin. All cells were cultured at 3% O2, and used between 25 and 40 population doublings. All cells were mycoplasma free.
Senescence was induced by irradiation with 10 Gy of ionizing radiation. Non-senescent controls (proliferating or quiescent) were placed in the irradiator for an identical period of time without turning on the irradiator. Oncogene-induced senescence was induced via lentiviral overexpression of HRAS^V12, as described previously (Wiley et al. (2016) Cell Metab. 23: 303-314).
3×10^4 cells in 12-well plates were treated as indicated in the text, and cultured in 0.5-1 ml serum-free DMEM for 24 hr. CM were collected and clarified at 2,000×g for 10 min. Supernatants were transferred to a tube; cells were trypsinized and counted. CM (2.5 μl) were analyzed by bead-based ELISAs (AlphaLISA, Perkin-Elmer) as instructed by the manufacturer and normalized to cell number.

IMR-90 fibroblasts = format: cell-based, human
Description: as §1
RNA was extracted from cells or tissues using commercially available kits (Isolate II—Bioline for cells; Direct-zol—Zymo for tissues) according to the manufacturer's instructions. cDNA synthesis was performed using a High Capacity cDNA Reverse Transcription Kit (Thermo Fisher) according to the manufacturer's instructions. Quantitative PCR was performed on a LightCycler 480 II (Roche) using primers and probes designed for the Universal Probe Library. Primers and probes used for human transcripts were ACTB: 5′-CCAACCGCGAGAAGATGA (SEQ ID NO:1), 5′-TCCATCACGATGCCAGTG (SEQ ID NO:2), Probe #64; TUBA: 5′-cttcgtctccgccatcag (SEQ ID NO:3), 5′-ttgccaatctggacacca (SEQ ID NO:4), Probe #58; ALOX5: 5′-[…] (SEQ ID NO:5), 5′-[…] (SEQ ID NO:6), Probe #64; ALOX5AP: 5′-ggtctgcggggctacttt (SEQ ID NO:7), 5′-[…] (SEQ ID NO:8), Probe #18; ALOX12: 5′-[…] (SEQ ID NO:9), 5′-agccaggtcgtcaggag (SEQ ID NO:10), Probe #32; ALOX15: 5′-[…] (SEQ ID NO:11), 5′-[…] (SEQ ID NO:12), Probe #76; ALOX15B: 5′-[…] (SEQ ID NO:13), 5′-actgggaggcgaagaagg (SEQ ID NO:14), Probe #51; AKR1C1: 5′-catgcctgtcctgggattt (SEQ ID NO:15), 5′-[…] (SEQ ID NO:16), Probe #49; AKR1C2: 5′-ctatgcgcctgcagaggt (SEQ ID NO:17), 5′-[…] (SEQ ID NO:18), Probe #31; AKR1C3: 5′-[…] (SEQ ID NO:19), 5′-[…] (SEQ ID NO:20), Probe #78; CYSLTR2: 5′-[…] (SEQ ID NO:21), 5′-[…] (SEQ ID NO:22), Probe #18; DPEP1: 5′-gacgtcctgaggctggtg (SEQ ID NO:23), 5′-[…] (SEQ ID NO:24), Probe #9 (SEQ ID NO:25), ELOVL2: 5′-[…] (SEQ ID NO:26), 5′-[…] (SEQ ID NO:27), Probe #53; ELOVL4: 5′-catttggcccatggattc (SEQ ID NO:28), 5′-[…] (SEQ ID NO:29), Probe #31; ELOVL5: 5′-cccttccatgcgtccata (SEQ ID NO:30), 5′-[…] (SEQ ID NO:31), Probe #31; EPHX2: 5′-ttctgctggacaccctgaa (SEQ ID NO:32), 5′-[…] (SEQ ID NO:33), Probe #45; GPX4: 5′-ttcccgtgtaaccagttcg (SEQ ID NO:34), 5′-[…] (SEQ ID NO:35), Probe #36; LTA4H: 5′-ctgctctcacggtccagtc (SEQ ID NO:36), 5′-[…] (SEQ ID NO:37), Probe #64; LTBR2: 5′-[…] (SEQ ID NO:38), 5′-[…] (SEQ ID NO:39), Probe #33; LTC4S: 5′-[…] (SEQ ID NO:40), 5′-[…] (SEQ ID NO:41), Probe #18; PTGDS: 5′-[…] (SEQ ID NO:42), 5′-[…] (SEQ ID NO:43), Probe #36; PTGES: 5′-agagatgcctgcccacag (SEQ ID NO:44), 5′-tggccaccacgtacatctt (SEQ ID NO:45), Probe #4; PTGES2: 5′-[…] (SEQ ID NO:46), 5′-[…] (SEQ ID NO:47), Probe #49; PTGES3 (SEQ ID NO:48), 5′-[…] (SEQ ID NO:49), 5′-[…] (SEQ ID NO:50), Probe #48; PTGIS: 5′-[…] (SEQ ID NO:51), 5′-[…] (SEQ ID NO:52), Probe #45; PTGR1: 5′-atgatggggcagcaagtg (SEQ ID NO:53), 5′-cccatcagaaatggagtgc (SEQ ID NO:54), Probe #64; PTGS1: 5′-[…] (SEQ ID NO:55), 5′-gtggtggtccatgttcctg (SEQ ID NO:56), Probe #81; PTGS2: 5′-gatccccagggctcaaac (SEQ ID NO:57), 5′-[…] (SEQ ID NO:58), Probe #61; TBXAS1: 5′-[…] (SEQ ID NO:59), 5′-tgcctcccgtgtgaatct (SEQ ID NO:60), Probe #73; AREG: 5′-[…] (SEQ ID NO:61), 5′-[…] (SEQ ID NO:62), Probe #73; CCL2: 5′-AGTCTCTGCCGCCCTTCT (SEQ ID NO:63), 5′-GTGACTGGGGCATTGATTG (SEQ ID NO:64), Probe #40; CCL27: 5′-[…] (SEQ ID NO:65), 5′-gctgggtggcagtaggaat (SEQ ID NO:66), Probe #18; CXCL1: 5′-[…] (SEQ ID NO:67), 5′-[…] (SEQ ID NO:68), Probe #52; HGF: 5′-[…] (SEQ ID NO:69), 5′-[…]

## CC(/C=C/c1cccc(Oc2ccc(F)cc2)c1)N(O)C(N)=O (centres unmarked) [BW-B70C]
[1]
  lowered IL-6 secretion in senescent cells: ~50%
IMR-90 fibroblasts
  growth of non-senescent cells: retarded growth
